The source made the active and inactive calls. The rule behind the calls is not given here.
Key:
[1] = molecular target: T1, Glucose-dependent insulinotropic receptor (Homo sapiens) (UniProt Q8TDV5); assay: Activation of human GPR119 expressed in CHOK1 cells harboring CRE-luciferase at 1 uM after 6 hrs by luciferase reporter gene assay relative to GSK1292263; format: functional, cell-based
T1 sequence (whole entry): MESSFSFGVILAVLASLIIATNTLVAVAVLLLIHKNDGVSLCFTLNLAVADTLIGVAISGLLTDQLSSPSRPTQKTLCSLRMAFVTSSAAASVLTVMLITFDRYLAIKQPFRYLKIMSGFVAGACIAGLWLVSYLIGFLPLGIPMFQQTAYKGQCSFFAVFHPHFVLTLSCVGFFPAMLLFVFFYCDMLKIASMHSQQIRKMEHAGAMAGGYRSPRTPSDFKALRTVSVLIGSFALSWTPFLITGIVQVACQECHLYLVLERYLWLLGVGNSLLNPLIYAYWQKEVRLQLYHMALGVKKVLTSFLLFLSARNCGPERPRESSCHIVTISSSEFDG

[2] = molecular target: T2, Glucose-dependent insulinotropic receptor (Homo sapiens, UniProt Q8TDV5); assay: Agonist activity at human GPR119 expressed in CHOK1 cells harboring CRE-luciferase after 6 hrs by luciferase reporter gene assay; format: functional, cell-based
T2 sequence (Q8TDV5 whole entry): T1 sequence (whole entry)

Mus musculus = assay: Decrease in plasma glucose AUC in C57BL/6 mouse at 30 to 50 mg/kg administered orally followed by glucose challenge after 30 mins by OGTT; format: functional, organism-based
[3] = molecular target: T1, Glucose-dependent insulinotropic receptor (Homo sapiens); assay: Agonist activity at GPR119 in human NCI-H716 cells assessed as increase in forskolin-induced GLP-1 secretion by ELISA; format: cell-based

| Activity [1] | EC50 [2] | Activity [3] | SMILES | Activity (Mus musculus) |
| --- | --- | --- | --- | --- |
| 73% | – | – | CCONC(=O)c1ccc(-c2csc3c(N(C)C4CCN(C(=O)OC(C)(C)C)CC4)ncnc23)cc1 | – |
| 82% | – | – | CONC(=O)c1ccc(-c2csc3c(N(C)C4CCN(C(=O)OC(C)(C)C)CC4)ncnc23)cc1 | – |
| 66% | – | – | CN(c1ncnc2c(-c3ccc(C(=O)N4CCCCO4)cc3)csc12)C1CCN(C(=O)OC(C)(C)C)CC1 | – |
| 87% | 53 nM | – | CON(C)C(=O)c1ccc(-c2csc3c(N(C)C4CCN(C(=O)OC(C)(C)C)CC4)ncnc23)cc1F | – |
| 106% | 171 nM | – | CON(C)C(=O)c1ccc(-c2ccc(OCC3CCN(C(=O)OC(C)(C)C)CC3)cn2)cc1 | – |
| 100% | 64 nM | – | CON(C)C(=O)c1ccc(-c2csc3c(OC4CCN(C(=O)OC(C)(C)C)CC4)ncnc23)cc1 | – |
| 82% | 199 nM | – | CCc1cnc(N2CCC(Oc3ncnc4c(-c5ccc(C(=O)N(C)OC)cc5)csc34)CC2)nc1 | – |
| 105% | 98 nM | – | CON(C)C(=O)c1ccc(-c2csc3c(N(C)C4CCN(C(=O)OC(C)(C)C)CC4)ncnc23)cc1 | – |
| 82% | 156 nM | – | CON(C)C(=O)c1ccc(-c2csc3c(N(C)C4CCN(C(=O)OC(C)C)CC4)ncnc23)cc1 | – |
| 88% | 57 nM | – | CON(C)C(=O)c1ccc(-c2csc3c(OC4CCN(C(=O)OC(C)(C)C)CC4)ncnc23)cc1F | – |

Further lines, the compound ahead of its results:

| SMILES | Activity [1] | EC50 [2] | Activity [3] | Activity (Mus musculus) |
| --- | --- | --- | --- | --- |
| CC(C)(C)OC(=O)N1CCC(COc2ccc(-c3ccc(C(=O)N4CCCCO4)cc3)nc2)CC1 | 73% | 321 nM | – | – |
| CON(C)C(=O)c1ccc(-c2ccc(OCC3CCN(C(=O)OC(C)C)CC3)cn2)cc1 | 80% | 155 nM | – | – |
| CCc1cnc(N2CCC(N(C)c3ncnc4c(-c5ccc(C(=O)N(C)OC)cc5)csc34)CC2)nc1 | 80% | – | – | – |
| CON(C)C(=O)c1ccc(-c2ccc(OCC3CCN(C(=O)OC(C)C)CC3)cn2)cc1F | 96% | 92 nM | – | – |
| CC(C)(C)OC(=O)N1CCC(COc2ccc(-c3ccc(C(=O)NOCc4ccccc4)cc3)nc2)CC1 | 69% | – | – | – |
| CC(C)OC(=O)N1CCC(N(C)c2ncnc3c(-c4ccc(C(=O)NOCc5ccccc5)cc4)csc23)CC1 | 53% | – | – | – |
| CCc1cnc(N2CCC(Oc3ncnc4c(-c5ccc(C(=O)N(C)OC)c(F)c5)csc34)CC2)nc1 | 100% | 105 nM | – | – |
| CCc1cnc(N2CCC(N(C)c3ncnc4c(-c5ccc(C(=O)N(C)OC)c(F)c5)csc34)CC2)nc1 | 81% | – | – | – |
| CCc1cnc(N2CCC(N(C)c3ncnc4c(-c5ccc(C(=O)NOCc6ccccc6)cc5)csc34)CC2)nc1 | 41% | – | – | – |
| CN(c1ncnc2c(-c3ccc(C(=O)NOCc4ccccc4)cc3)csc12)C1CCN(C(=O)OC(C)(C)C)CC1 | 81% | 83 nM | – | – |
| CCc1cnc(N2CCC(COc3ccc(-c4ccc(C(=O)N(C)OC)c(F)c4)nc3)CC2)nc1 | 100% | 77 nM | Active | Active |
| CCc1cnc(N2CCC(COc3ccc(-c4ccc(C(=O)N(C)OC)cc4)nc3)CC2)nc1 | 95% | 319 nM | – | – |
| CON(C)C(=O)c1ccc(-c2csc3c(N(C)C4CCN(C(=O)OC(C)C)CC4)ncnc23)cc1F | 90% | 67 nM | – | – |
| CON(C)C(=O)c1ccc(-c2ccc(OCC3CCN(C(=O)OC(C)(C)C)CC3)cn2)cc1F | 114% | 73 nM | – | – |

— ChEMBL document CHEMBL4052726, “Design, synthesis, and biological evaluation of aryl N-methoxyamide derivatives as GPR119 agonists” (Bioorg Med Chem Lett, 2017)
